Measured values reported in paper PMC12597212, “Biaryl Phosphate‐Based Inhibitors of the Transcription Factor STAT4” (Chemmedchem, 2025).
Like-named read-outs stand apart in the source and are kept apart here.

Experiments:
STAT4 SH2 domain [1] = molecular target: T1, STAT4 SH2 domain (Homo sapiens, UniProt Q14765); test: Competitive fluorescence polarization (FP) assay, STAT4; type: binding; conditions: for IC50: 28 nM STAT4, 10 nM tracer peptide; for Ki: Ki calculated from IC50, mean ± SD, n = 3
T1 sequence (Q14765 1-748): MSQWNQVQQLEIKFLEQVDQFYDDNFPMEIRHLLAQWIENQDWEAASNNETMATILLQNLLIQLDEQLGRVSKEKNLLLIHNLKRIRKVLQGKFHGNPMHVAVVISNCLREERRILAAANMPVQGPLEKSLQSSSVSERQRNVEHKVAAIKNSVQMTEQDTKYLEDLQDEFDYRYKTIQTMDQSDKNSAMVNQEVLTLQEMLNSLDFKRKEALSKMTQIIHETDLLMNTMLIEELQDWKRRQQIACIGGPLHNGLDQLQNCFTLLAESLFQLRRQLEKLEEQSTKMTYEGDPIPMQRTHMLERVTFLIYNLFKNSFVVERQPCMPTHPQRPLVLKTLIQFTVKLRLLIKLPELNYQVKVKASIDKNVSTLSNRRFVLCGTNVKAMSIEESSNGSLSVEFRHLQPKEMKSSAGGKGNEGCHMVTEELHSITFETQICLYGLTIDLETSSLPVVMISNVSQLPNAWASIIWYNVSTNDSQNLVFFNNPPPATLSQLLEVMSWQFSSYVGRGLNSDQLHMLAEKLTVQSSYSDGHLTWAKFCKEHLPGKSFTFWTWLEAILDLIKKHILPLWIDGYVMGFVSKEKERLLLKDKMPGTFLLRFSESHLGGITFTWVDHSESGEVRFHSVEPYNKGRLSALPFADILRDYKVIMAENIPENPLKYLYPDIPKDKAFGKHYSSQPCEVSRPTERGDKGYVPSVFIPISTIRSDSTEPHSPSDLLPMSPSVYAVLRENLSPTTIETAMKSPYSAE
Experimental: (§1) Fluorescence polarization assays
Competitive fluorescence polarization assays were carried as previously described.[1] Proteins […]
fluorescent-labeled peptides were used as tracers: 5-carboxyfluorescein-GpYLPQNID-OH for STAT4; 5-carboxyfluorescein-GpYDKPHVL for STAT1; 5-carboxyfluorescein-GpYLPQTV-NH2 for STAT3; 5-carboxyfluorescein-GpYLVLDKW for STAT5a/b, and 5-carboxyfluorescein- […]
mM Tris (pH 8.0), 50 mM NaCl, 1 mM EDTA, 1 mM DTT, 0.1 % Nonidet P-40 substitute, 2 %
DMSO. Proteins and test compound were incubated for 1 h at room temperature before the […]
(1 picture or pasted object on this page, not shown here) […]
fluorescent-labeled peptide was added. Samples were transferred to 384-well microtiter plates and fluorescence polarization was read after an additional 60 min of incubation time.
Experiments were carried out in triplicate. Percent binding was calculated based on a logarithmic curve fit using OriginPro 8G software. Conversion of IC50 values to Ki-values was achieved using the published equation[2] embedded in the corresponding Excel spread sheet […]
https://websites.umich.edu/~shaomengwanglab/software/calc_ki/ind ex.html.
(§2) Error bars represent standard deviations. […]
(§3) Experiments were carried out in triplicate. […]

STAT1 [2] = molecular target: T2, STAT1 (Homo sapiens, UniProt P42224); conditions: FP assay; data taken from the literature, ref [1] of the Supporting Information; cited from earlier work
T2 sequence (P42224 1-750): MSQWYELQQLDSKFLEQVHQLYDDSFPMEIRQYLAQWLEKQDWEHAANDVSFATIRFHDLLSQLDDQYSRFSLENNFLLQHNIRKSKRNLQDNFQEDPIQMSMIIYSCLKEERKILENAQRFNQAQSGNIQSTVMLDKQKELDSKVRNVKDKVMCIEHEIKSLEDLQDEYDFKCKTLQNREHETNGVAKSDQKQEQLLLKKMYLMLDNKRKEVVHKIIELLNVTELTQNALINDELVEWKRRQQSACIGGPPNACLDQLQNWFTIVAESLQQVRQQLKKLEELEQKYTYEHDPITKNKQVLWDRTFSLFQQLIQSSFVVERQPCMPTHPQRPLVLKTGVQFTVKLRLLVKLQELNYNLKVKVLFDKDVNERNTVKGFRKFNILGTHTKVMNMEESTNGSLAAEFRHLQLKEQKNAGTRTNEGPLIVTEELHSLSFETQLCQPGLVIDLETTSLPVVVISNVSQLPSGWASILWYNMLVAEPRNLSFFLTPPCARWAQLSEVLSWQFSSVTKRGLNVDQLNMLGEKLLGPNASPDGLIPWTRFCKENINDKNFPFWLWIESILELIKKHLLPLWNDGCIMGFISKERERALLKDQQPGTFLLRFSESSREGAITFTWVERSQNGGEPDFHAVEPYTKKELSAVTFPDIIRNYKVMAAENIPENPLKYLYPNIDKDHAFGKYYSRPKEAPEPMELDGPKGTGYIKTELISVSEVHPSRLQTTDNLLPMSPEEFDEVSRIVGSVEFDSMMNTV

STAT5a = molecular target: T3, STAT5a (Homo sapiens, UniProt P42229); test: Competitive fluorescence polarization (FP) assay, STAT5a; type: binding
T3 sequence (P42229 1-794): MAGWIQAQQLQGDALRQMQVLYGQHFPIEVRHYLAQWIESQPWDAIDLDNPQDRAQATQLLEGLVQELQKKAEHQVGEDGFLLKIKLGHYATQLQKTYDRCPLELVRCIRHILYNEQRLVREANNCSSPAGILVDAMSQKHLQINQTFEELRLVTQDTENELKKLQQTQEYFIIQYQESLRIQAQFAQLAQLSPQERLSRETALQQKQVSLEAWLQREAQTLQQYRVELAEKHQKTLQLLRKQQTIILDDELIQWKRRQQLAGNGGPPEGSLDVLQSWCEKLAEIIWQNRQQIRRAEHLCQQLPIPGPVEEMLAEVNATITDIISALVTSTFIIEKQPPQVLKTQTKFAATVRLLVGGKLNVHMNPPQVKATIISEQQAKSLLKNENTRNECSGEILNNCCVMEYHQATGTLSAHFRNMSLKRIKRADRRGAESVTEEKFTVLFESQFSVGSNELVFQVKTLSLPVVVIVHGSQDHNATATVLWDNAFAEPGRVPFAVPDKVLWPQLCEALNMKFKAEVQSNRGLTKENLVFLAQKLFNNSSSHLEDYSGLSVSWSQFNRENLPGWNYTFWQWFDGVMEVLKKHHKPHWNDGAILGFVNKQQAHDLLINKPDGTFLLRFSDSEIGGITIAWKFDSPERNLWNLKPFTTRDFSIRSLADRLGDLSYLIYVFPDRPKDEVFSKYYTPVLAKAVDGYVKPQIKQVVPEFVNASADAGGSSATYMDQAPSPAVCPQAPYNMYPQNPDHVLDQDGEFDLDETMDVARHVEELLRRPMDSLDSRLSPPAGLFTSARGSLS
Experimental: as §1
(§4) STAT4; 5-carboxyfluorescein-GpYDKPHVL for STAT1; 5-carboxyfluorescein-GpYLPQTV- […]
(§5) fluorescent-labeled peptide was added. Samples were transferred to 384-well microtiter plates […]
(§6) Experiments were carried out in triplicate. Percent binding was calculated based on a logarithmic curve fit using OriginPro 8G software. Conversion of IC50 values to Ki-values was […]
as §2, §3

STAT6 = molecular target: T4, STAT6 (Homo sapiens, UniProt P42226); test: Competitive fluorescence polarization (FP) assay, STAT6; type: binding
T4 sequence (P42226 1-847): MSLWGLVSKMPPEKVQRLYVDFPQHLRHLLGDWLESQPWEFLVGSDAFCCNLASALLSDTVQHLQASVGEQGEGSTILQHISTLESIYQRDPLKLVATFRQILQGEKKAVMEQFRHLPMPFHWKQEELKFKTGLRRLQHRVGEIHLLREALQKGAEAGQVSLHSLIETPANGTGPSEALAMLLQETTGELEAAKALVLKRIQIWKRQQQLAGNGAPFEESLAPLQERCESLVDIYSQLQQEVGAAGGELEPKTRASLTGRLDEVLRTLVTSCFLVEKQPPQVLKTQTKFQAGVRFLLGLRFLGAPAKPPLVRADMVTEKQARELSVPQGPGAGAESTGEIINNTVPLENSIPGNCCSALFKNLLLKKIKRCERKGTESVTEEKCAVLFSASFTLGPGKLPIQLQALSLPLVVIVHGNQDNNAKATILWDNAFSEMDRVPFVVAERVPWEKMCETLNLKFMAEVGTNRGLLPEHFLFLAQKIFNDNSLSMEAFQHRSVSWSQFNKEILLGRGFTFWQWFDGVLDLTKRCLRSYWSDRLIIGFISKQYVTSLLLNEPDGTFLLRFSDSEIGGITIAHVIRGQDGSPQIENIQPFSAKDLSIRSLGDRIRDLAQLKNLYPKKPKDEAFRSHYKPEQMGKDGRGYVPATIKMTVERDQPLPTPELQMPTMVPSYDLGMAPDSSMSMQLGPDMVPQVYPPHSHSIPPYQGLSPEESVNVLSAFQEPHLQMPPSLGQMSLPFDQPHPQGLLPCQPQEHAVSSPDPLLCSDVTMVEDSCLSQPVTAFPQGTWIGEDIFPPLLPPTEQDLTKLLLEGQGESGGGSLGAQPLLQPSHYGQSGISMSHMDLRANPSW
Experimental: as §1, §4, §5, §6, §2, §3

STAT1 [3] = molecular target: T2, STAT1; test: Competitive fluorescence polarization (FP) assay, STAT1; type: binding
Experimental: as §1, §4, §5, §6, §2, §3

STAT5b = molecular target: T5, STAT5b (Homo sapiens, UniProt P51692); test: Competitive fluorescence polarization (FP) assay, STAT5b; type: binding
T5 sequence (P51692 1-787): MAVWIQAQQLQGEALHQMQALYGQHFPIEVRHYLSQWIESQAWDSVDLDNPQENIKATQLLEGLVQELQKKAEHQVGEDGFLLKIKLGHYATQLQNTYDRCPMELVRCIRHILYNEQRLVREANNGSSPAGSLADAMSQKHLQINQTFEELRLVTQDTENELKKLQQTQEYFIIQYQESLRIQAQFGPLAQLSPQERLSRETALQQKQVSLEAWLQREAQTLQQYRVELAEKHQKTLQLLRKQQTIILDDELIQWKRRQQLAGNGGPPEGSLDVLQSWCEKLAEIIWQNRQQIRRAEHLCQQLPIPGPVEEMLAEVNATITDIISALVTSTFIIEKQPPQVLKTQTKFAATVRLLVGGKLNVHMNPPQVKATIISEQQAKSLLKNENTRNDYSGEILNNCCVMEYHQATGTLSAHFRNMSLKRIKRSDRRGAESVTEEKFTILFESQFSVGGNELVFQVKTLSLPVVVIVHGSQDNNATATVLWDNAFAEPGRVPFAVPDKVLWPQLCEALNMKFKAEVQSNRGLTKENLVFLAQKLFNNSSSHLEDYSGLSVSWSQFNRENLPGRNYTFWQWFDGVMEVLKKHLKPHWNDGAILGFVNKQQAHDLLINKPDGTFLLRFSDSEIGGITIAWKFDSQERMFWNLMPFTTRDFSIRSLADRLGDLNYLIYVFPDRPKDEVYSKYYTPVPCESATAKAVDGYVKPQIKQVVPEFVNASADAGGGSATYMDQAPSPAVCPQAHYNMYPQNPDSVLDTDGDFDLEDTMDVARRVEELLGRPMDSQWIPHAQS
Experimental: as §1, §4, §5, §6, §2, §3

STAT4 SH2 domain [4] = molecular target: T1, STAT4 SH2 domain; conditions: FP assay; data taken from the literature, ref [1] of the Supporting Information; cited from earlier work
[5] = Ki calculated from IC50, mean ± SD, n = 3

Work on `O=P(O)(O)Oc1ccc(-c2ccsc2)cc1F` [8d] yielded an IC50 (STAT4 SH2 domain [1]) of 520 nM and a Ki (STAT4 SH2 domain [1]) of 260 ± 20 nM.

`O=P(O)(O)Oc1ccc(-c2cccs2)cc1F` [8e] showed an IC50 (STAT4 SH2 domain [1]) of 600 nM and a Ki (STAT4 SH2 domain [1]) of 300 ± 3 nM.

In the case of `O=P(O)(O)Oc1ccc(-c2ccccc2)cc1` [compound 1, p‐biphenyl phosphate], the IC50 (STAT1 [2]) is listed as 16.4 µM.

With `O=P(O)(O)Oc1ccc(-c2cccc3ccccc23)cc1` [compound 10] the IC50 (STAT5a; 125-177 nM STAT5a, 10 nM tracer peptide) was 8.1 µM, the Ki (STAT5a; [5]) was 4 ± 0.3 µM and the IC50 (STAT6; 106 nM STAT6, 10 nM tracer peptide) was 19.1 µM. It also gave a Ki (STAT6; [5]) of 9.4 ± 1.9 µM, an IC50 (STAT1 [3]; 80-92 nM STAT1, 10 nM tracer peptide) of 38 µM and a Ki (STAT1 [3]; [5]) of 17 ± 1 µM. For the same compound, the IC50 (STAT5b; 59-85 nM STAT5b, 10 nM tracer peptide) was 89 µM and the Ki (STAT5b; [5]) was 43 ± 4 µM.

In the case of `O=P(O)(O)Oc1ccc(-c2ccccc2)cc1F` [compound 13], the IC50 (STAT4 SH2 domain [4]) is given as 1210 nM and the IC50 (STAT1 [2]) is given as 12.8 µM.
